From publication PMC4489686 (Biochemistry, 2015)

Biological target: StAhpC (Salmonella typhimurium AhpC; alkyl hydroperoxide reductase C component) (Salmonella enterica, UniProt P0A251)
Assay: stopped-flow Trp fluorescence, double-exponential fit
Assay type: biochemical
Details: reduced enzyme, no reductase; pH 7.0, 25 °C; peroxidatic Cys46

StAhpC (Salmonella typhimurium AhpC; alkyl hydroperoxide reductase C component), sequence (P0A251 2-187): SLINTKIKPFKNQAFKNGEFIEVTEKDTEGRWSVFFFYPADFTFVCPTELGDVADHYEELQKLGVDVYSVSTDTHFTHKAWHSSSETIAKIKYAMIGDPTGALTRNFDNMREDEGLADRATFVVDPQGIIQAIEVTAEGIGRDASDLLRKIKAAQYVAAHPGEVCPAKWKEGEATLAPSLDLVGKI

SMILES | slope of kobs vs [ROOH], first phase
CCOO [ethyl hydroperoxide] | red those for ethyl hydroperoxide
CC(C)(OO)c1ccccc1 [cumene hydroperoxide] | black those for cumene hydroperoxide
